Like-named read-outs stand apart in the source and are kept apart here.
Experiments:
hypertensive patients = assay: Study III: patients with high blood pressure but without anxiety or depression; assay type: in vivo; conditions: for outcome in 55 non-responder patients, antihypertensive added to citalopram 20 mg/day: after six weeks, betaloc oral 100 mg/day (40 patients) or captopril 2×12.5 mg/day (15 patients) in addition to citalopram
Method: In the test 102 hypertensive patients participated who complained of the following symptoms: attack like headache, dizziness, trembling, tremor, sweating, fear of death, sensation of heat and cold, and gastrointestinal complaints. The patients thought that their complaints were the consequence of panic attacks, but this was not supported by their psychiatric anamnesis in an unambiguous manner.
The patients were orally treated with citalopram in a dose of 5 mg/day on the first week, 10 mg/day on the second week and 20 mg/day on the third week.
From the 55 non-responder patients 40 individuals (39%) received betaloc in an oral dose of 100 mg/day and 15 patients (15%) received captopril in a dose of 2×12.5 mg/day, in addition to the administration of 20 mg/day of citalopram.

hypertonic patients = assay: Study I: antihypertensive effect of citalopram in hypertonic patients with panic disorder; assay type: in vivo; conditions: for outcome in remaining 84 patients, antihypertensive added to citalopram 20 mg/day: after 6 weeks, oral metoprolol 2×50 mg/day (64 patients) or captopril 2×12.5 mg/day (20 patients) in addition to citalopram
Method: 254 patients participated in the study. All patients were hypertonic. In this group of hypertonics there were 120 patients suffering from panic disorder and agoraphobia, 70 patients suffering from panic disorder with agoraphobia and with depression, and 64 patients suffering from panic disorder with agoraphobia and with social phobia and/or with obsessive compulsive disorder (OCD).
The patients received citalopram in a dose of 5 mg/day on the first week, 10 mg/day on the second week and 20 mg/day on the third and fourth week.
The citalopram treatment of the remaining 84 patients was continued with a weekly oral dosage of 20 mg/day. From said 84 individuals 64 patients were additionally treated orally with metoprolol for 3 weeks in a dose of 2×50 mg/day and 20 patients received captopril in a dose of 2×12.5 mg/day.

[1] = in the course of treatment of depression; cited from earlier work
[2] = test system: patients having unstable high blood pressure; conditions: human, in vivo, po
Method: In the study 13 patients having unstable high blood pressure were used who suffered from different anxiety disorders and depression.
Out of these patients 3 suffered from panic disorder, 1 from obsessive compulsive disorder and 9 from panic disorder with depression. On the beginning of treatment with the following antidepressants the patients were normotensive.
The patients were treated orally with 40 mg/day of paroxetine, or 100 mg/day of sertraline, or 20 mg/day of fluoxetine, or 150 mg/day of fluvoxamine. After 6 months 60% of the patients and after a period of 12–30 months 40% of the patients became hypertensive beside the normalization of their psychiatric state.
Thereafter the above mentioned antidepressants were substituted with citalopram. The oral dose of citalopram was 5 mg/day on the first week, 10 mg/day on the second week and 20 mg/day on the third week.

[3] = after three weeks, oral citalopram 5/10/20 mg/day, of 102 hypertensive patients
[4] = after 4 weeks treatment, citalopram 5/10/20/20 mg/day, of 254 hypertonic patients

COCCc1ccc(OCC(O)CNC(C)C)cc1 (centres unmarked) [betaloc]
outcome in 55 non-responder patients, antihypertensive added to citalopram 20 mg/day (hypertensive patients): complete recovery

C[C@H](CS)C(=O)N1CCC[C@H]1C(=O)O [captopril]
outcome in 55 non-responder patients, antihypertensive added to citalopram 20 mg/day (hypertensive patients): complete recovery
outcome in remaining 84 patients, antihypertensive added to citalopram 20 mg/day (hypertonic patients): complete recovery

CN(C)CCCC1(c2ccc(F)cc2)OCc2cc(C#N)ccc21 (centres unmarked) [citalopram, 1-(3-dimethylamino-propyl)-1-(4-fluoro-phenyl)-1,3-dihydro-5-isobenzofurance-carbonitrile]
patients recovered and became normotensive (hypertensive patients; [3]): 47 patients
share of patients recovered and became normotensive (hypertensive patients; [3]): 46%
patients with complete recovery (became normotensive, symptoms of anxiety and affective disorders disappeared) (hypertonic patients; [4]): 170 patients
share of patients with complete recovery (became normotensive) (hypertonic patients; [4]): 67%
undesired side effect given in information leaflet [1]: hypotension may occur

CNCCC(Oc1ccc(C(F)(F)F)cc1)c1ccccc1 (centres unmarked) [fluoxetine]
patients who became hypertensive [2]: 40%
patients who became hypertensive ([2]; 6 months): 60%

COCCCC/C(=N\OCCN)c1ccc(C(F)(F)F)cc1 [fluvoxamine]
patients who became hypertensive [2]: 40%
patients who became hypertensive ([2]; 6 months): 60%

COCCc1ccc(OCC(O)CNC(C)C)cc1 (centres unmarked) [metoprolol]
outcome in remaining 84 patients, antihypertensive added to citalopram 20 mg/day (hypertonic patients): complete recovery

Fc1ccc([C@@H]2CCNC[C@H]2COc2ccc3c(c2)OCO3)cc1 [paroxetine]
patients who became hypertensive [2]: 40%
patients who became hypertensive ([2]; 6 months): 60%

CN[C@H]1CC[C@@H](c2ccc(Cl)c(Cl)c2)c2ccccc21 [sertraline]
patients who became hypertensive [2]: 40%
patients who became hypertensive ([2]; 6 months): 60%

— patent US7141604B2, “Citalopram for the treatment of elevated blood pressure” (Egis Gyógyszergyár Rt., priority 2002, dated 2006)
